Like-named read-outs stand apart in the source and are kept apart here. Marks after values point to notes of the source that are not given here.
How the values were obtained:
human FPPS [1] = biological target: T1, human FPPS (Homo sapiens, UniProt P14324); test: Isothermal titration calorimetry (ITC) binding assay; set-up: His6 (N); made in house; host or cells: Escherichia coli BL21 (DE3)
T1 sequence (P14324 1-353 isoform P14324-2): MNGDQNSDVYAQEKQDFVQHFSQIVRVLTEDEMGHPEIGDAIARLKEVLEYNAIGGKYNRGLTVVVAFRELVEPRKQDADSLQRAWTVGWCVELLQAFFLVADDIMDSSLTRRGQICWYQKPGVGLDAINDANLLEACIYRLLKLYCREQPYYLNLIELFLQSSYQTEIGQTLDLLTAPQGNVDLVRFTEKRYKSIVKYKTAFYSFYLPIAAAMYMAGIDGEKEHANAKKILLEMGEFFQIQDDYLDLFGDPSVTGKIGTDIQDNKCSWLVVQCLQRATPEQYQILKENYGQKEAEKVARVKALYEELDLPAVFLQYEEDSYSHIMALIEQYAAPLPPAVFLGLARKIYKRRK
Experimental: Ligand (DMAPP, GPP and FPP) and MgCl2 solutions were prepared in the used dialysate. Each titration experiment consisted of a first 1 μl injection followed by 18 2 μl injections of a ligand solution into the 204.1 μl calorimetric cell loaded with the enzyme solution. […] When added, the concentration of MgCl2 was 5 mM. Heats of dilution were measured by injecting the ligands into the buffer alone and subtracted from the corresponding titration data. The data were fitted to the single-site-binding model implemented in the Origin software package provided with the ITC instrument.

FPPS = conditions: cited from earlier work
human FPPS [2] = biological target: T1, human FPPS
Experimental: Reaction calorimetry was also carried out at 30 °C with a MicroCal iTC200 system. The enzyme and substrates were prepared in the reaction buffer (50 mM HEPES (pH 7.5), 150 mM NaCl, 2 mM MgCl2, 2 mM β-mercaptoethanol and 5% glycerol) in the same way described for the binding experiments. […] When added, FPP was preincubated together with the enzyme. The concentration of the enzyme in the cell was 400–500 nM, and those of the substrates in the syringe were 0.4–4 mM. Heats of dilution were measured and subtracted from the actual reaction data. […] Briefly, The molar reaction enthalpy (ΔH) was determined first based on the relationship:
in which Q is the total heat associated with producing n moles of product, [S0] is the starting concentration of the limiting substrate and V is the volume of the calorimetric cell. Q was calculated by integrating the thermal power (dQ/dt) measured over the complete course of reaction, whereas [S0] and V were known. Once ΔH was determined, the substrate concentration ([S]) could be determined as a function of time as described in the equation:
The rate of reaction could be calculated from dQ/dt for any given time point:
For kinetic measurements, the temporal experimental heat flow must be monitored accurately. […] Km and Vmax values were determined by fitting the rate data to the following equation[29]:

N-BP-bound FPPS complex = conditions: binding of IPP to an N-BP-bound FPPS complex; cited from earlier work
[3] = ITC, 30 °C, titrated in absence of Mg2+, triplicate
[4] = ITC, 30 °C, titrated in absence of Mg2+, triplicate, read-out: Kd
[5] = ITC, 30 °C, titrated in presence of Mg2+ (5 mM MgCl2), triplicate
[6] = ITC, 30 °C, titrated in presence of Mg2+ (5 mM MgCl2), triplicate, read-out: Kd

SMILES | TΔS (human FPPS [1]; [3]) | n (molar binding ratio) (human FPPS [1]; [3]) | ΔH (human FPPS [1]; [3]) | Kd (human FPPS [1]; [4]) | TΔS (human FPPS [1]; [5]) | n (molar binding ratio) (human FPPS [1]; [5]) | ΔH (human FPPS [1]; [5]) | Kd (human FPPS [1]; [6]) | further results
O=P(O)(O)OP(=O)(O)O [PPi] |  |  |  |  |  |  |  |  | binding affinity by ITC (result in words) (human FPPS [1]; both in the presence and absence of Mg2+): did not demonstrate an apparent binding event
CC(C)=CCC/C(C)=C/CC/C(C)=C/COP(=O)(O)OP(=O)(O)O [FPP, farnesyl pyrophosphate] | 1.8 kcal/mol | 1.12±0.01 | -5.5 ± 0.1 kcal/mol |  | 1.7 kcal/mol | 1.17±0.02 | -5.6 ± 0.1 kcal/mol |  | effect on FPPS reaction rate curve (product inhibition) (human FPPS [2]; same excess experiment, reaction with an initial amount of FPP preincubated with enzyme): depressed rate curve
CC(C)=CCC/C(C)=C/CC/C(C)=C/CO[P@@](=O)(O)OP(=O)(O)O (stereo in doubt) [FPP, farnesyl pyrophosphate] |  |  |  | 5.3 ± 0.4 µM |  |  |  | 6 ± 0.6 µM | Kd (human FPPS [1]; summary of ITC values in absence and presence of Mg2+, read-out: Kd for binding to the allosteric pocket): 5 to 6 µM
C=C(C)CCO[P@@](=O)(O)OP(=O)(O)O [IPP, isopentenyl pyrophosphate] |  |  |  |  |  |  |  |  | effect on enzyme activity (substrate inhibition) (human FPPS [2]; experiment carried out in excess of IPP): significantly reduced enzyme activity; Km (FPPS; literature value for IPP): 1800 nM; Kd (N-BP-bound FPPS complex): 900 nM

Now from value to compound, other results behind:

TΔS (human FPPS [1]; [3]) | n (molar binding ratio) (human FPPS [1]; [3]) | ΔH (human FPPS [1]; [3]) | Kd (human FPPS [1]; [4]) | TΔS (human FPPS [1]; [5]) | n (molar binding ratio) (human FPPS [1]; [5]) | ΔH (human FPPS [1]; [5]) | Kd (human FPPS [1]; [6]) | SMILES | further results
1.8 kcal/mol | 0.80±0.03 | -5.3 ± 0.2 kcal/mol | 7.6 ± 0.9 µM | 0.2 kcal/mol | 0.79±0.01 | -7.7 ± 0.2 kcal/mol | 2.1 ± 0.3 µM | CC(C)=CCC/C(C)=C/COP(=O)(O)OP(=O)(O)O [GPP, geranyl pyrophosphate] | Km (FPPS; previously reported Km value for GPP): 2070 nM
1.6 kcal/mol | 1 ^† | -4.5 ± 0.2 kcal/mol |  | 2.1 kcal/mol | 0.87±0.01 | -5.8 ± 0.1 kcal/mol |  | CC(C)=CCOP(=O)(O)OP(=O)(O)O [DMAPP, dimethylallyl pyrophosphate] | Kd (human FPPS [1]; Kd, ITC, 30 °C, titrated in absence of Mg2+, triplicate): 43.7 ± 4.3 µM; Kd (human FPPS [1]; Kd, ITC, 30 °C, titrated in presence of Mg2+ (5 mM MgCl2), triplicate): 2.2 ± 0.2 µM

Reference: publication PMC5253651 (Nature Communications, 2017)
